Source: patent publication US6855730B2, “3-methylidenyl-2-indolinone modulators of protein kinase” (Sugen, Inc., priority 1998, dated 2005)

Tests used:
[1] = molecular target: T1, PDGFR-β (Homo sapiens, UniProt P09619); test: Biochemical PDGFR assay (ELISA, PDGFR-β expressing NIH 3T3 cell lysate); conditions: read-out: bio PDGF IC50
T1 construct: host or cells: NIH 3T3
Procedure, shortened: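 Phosphorylation was read by ELISA (anti-phosphotyrosine serum, peroxidase secondary, ABTS at 410 nm) after a 30 min room-temperature reaction with 20 μM ATP, EDTA-stopped. Kinase was lysate-derived PDGFR-β (NIH 3T3) immobilised via 28D4C10 antibody, compound added 30 min before ATP.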

[2] = molecular target: Myc-GyrB-FGFR fusion protein (Homo sapiens, UniProt P11362); test: Biochemical FGFR assay (ELISA); conditions: read-out: bio fgfR1 IC50
Procedure: This assay measures in vitro kinase activity of the Myc-GyrB-FGFR fusion protein using ELISA.
Materials and Reagents • 1. HNTG
PBS (Dulbecco's Phosphate-Buffered Saline, Gibco Catalog # 450-1300EB). • 3. Blocking Buffer. • 4. Kinase Buffer.
Working solution: 100 mM in ethanol. • 6.
ABTS Solution. • 10. Hydrogen peroxide 30% solution ( Fisher Catalog # H325). • 11. ABTS/H2O2. • 12. 0.2 M HCl. • 13.
Prepare 1.0 mM solution in MilliQ H2O, adjust pH to 7.2 with HCl. • 14.
Prepare 5 M solution in MilliQ H2O. • 15. MgCl, (Fisher Cat. No. M33-500).
Prepare 1 M solution in MilliQ H2O. • 16. HEPES (Fisher Cat. No. BP310-500).
Prepare 1 M solution in MilliQ H2O, adjust pH to 7.5, sterile filter. • 17. TBST Buffer. • 18. Sodium Carbonate Buffer (Fisher Cat. No. S495).
Prepare 0.1 M solution in MilliQ H2O, adjust pH to 9.6 with NaOH, filter. • 19. Dithiothreitol (DTT, Fisher Cat. No. BP172-25).
Prepare 0.5 mM working solution in MilliQ H2O just prior to-use. Store at −20° C. until used, discard any leftover. • 20. MnCl2. • 21. Triton X-100. • 22. Goat α-Rabbit IgG (Cappel). • 23. Affinity purified Rabbit α GST GyrB (Biochemistry Lab. SUGEN, Inc.).
All of the following steps are conducted at room temperature unless otherwise indicated. • 1. Coat Corning 96-well ELISA plates with 2 μg Goat α-Rabbit antibody per well in Carbonate Buffer such that total well volume is 100 μl. Store overnight at 40° C. • 2. Remove unbound Goat a-Rabbit antibody by inverting plate to remove liquid. Pat plate on a paper towel to remove excess liquid and bubbles • 3.. Add 150 μl Blocking Buffer (5% Low Fat Milk in PBS) to each well. Incubate while shaking on a micro-titer plate shaker for 30 min. • 4. Wash 4× with TBST. Pat plate on a paper towel to remove excess liquid and bubbles. • 5. Add 0.5 μg Rabbit α-GyrB antibody per well. Dilute antibody in DPBS to a final volume of 100 μl per well. Incubate with shaking on a micro-titer plate shaker at room temperature for 1 hour. • 6. Wash 4× with TBST as described in step 4. • 7. Add 2 μg COS/FGFR cell lysate (Myc-GyrB-FGFR source) in HNTG to each well to give a final volume of 100 μl per well. Incubate with shaking on a micro-titer plate shaker for 1 hour. • 8. Wash 4× with TBST as described in step 4. • 9. Add 80 μl of 1× kinase buffer per well. • 10. […] Transfer 10 μ l of diluted test compound solution and control wells from polypropylene plate wells to the corresponding ELISA plate wells, incubate with shaking on a micro-titer plate shaker for 20 minutes. • 12. Add 10 μl of 70 μM ATP diluted in kinase buffer to positive control and test wells (Final ATP concentration is 7 EM/well). Add 10 μl 1× kinase buffer to negative control wells. Incubate with shaking on a micro-titer plate shaker for 15 min. • 13. Stop kinase reaction by adding 5 μl 0.5 M EDTA to all wells. • 14. Wash 4× with TBST as described in step 4. • 15. Add 100 μl biotin conjugated α-phosphotyrosine mab (b4G10) diluted in TBST to each well. Incubate with shaking on a micro-titer plate shaker for 30 minutes. • 16. Prepare Vectastain ABC reagent. […] Mix by inverting tube several times. Add 1 drop reagent B and mix again. • 17. Wash 4× with TBST as described in step 4. • 18. Add 100 μl ABC HRP reagent to each well. Incubate with shaking on a micro-titer plate shaker for 30 minutes. • 19. Wash 4× with TBST as described in step 4. • 20. Add 100 μl of ABTS/H2O2 solution to each well. • 22. Incubate 5 to 15 minutes with shaking. Remove any bubbles. • 23. If necessary stop reaction by adding 1 00 μl of 0.2M HCl/well. • 24.

[3] = molecular target: T2, flkGST (Homo sapiens, UniProt P35968); test: bio flkGST assay; type: biochemical
T2 construct: GST
T2 sequence (P35968 786-1356 limits assumed): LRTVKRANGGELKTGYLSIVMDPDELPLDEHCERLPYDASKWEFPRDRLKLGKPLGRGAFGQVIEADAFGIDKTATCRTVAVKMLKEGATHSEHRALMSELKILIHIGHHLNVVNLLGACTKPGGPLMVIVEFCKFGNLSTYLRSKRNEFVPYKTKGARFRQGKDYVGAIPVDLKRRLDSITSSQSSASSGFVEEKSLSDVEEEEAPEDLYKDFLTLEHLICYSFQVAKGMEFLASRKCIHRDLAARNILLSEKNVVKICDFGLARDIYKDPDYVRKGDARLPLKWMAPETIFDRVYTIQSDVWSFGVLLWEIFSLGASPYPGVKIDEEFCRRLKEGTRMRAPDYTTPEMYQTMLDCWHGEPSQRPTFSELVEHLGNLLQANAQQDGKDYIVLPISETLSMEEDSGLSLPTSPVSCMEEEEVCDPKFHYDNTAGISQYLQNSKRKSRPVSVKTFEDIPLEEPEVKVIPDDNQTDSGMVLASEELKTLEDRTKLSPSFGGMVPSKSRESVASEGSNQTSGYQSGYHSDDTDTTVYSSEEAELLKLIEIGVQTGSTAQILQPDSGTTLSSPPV

Myc-GyrB-FGFR fusion protein, sequence (P11362 478-767 limits assumed): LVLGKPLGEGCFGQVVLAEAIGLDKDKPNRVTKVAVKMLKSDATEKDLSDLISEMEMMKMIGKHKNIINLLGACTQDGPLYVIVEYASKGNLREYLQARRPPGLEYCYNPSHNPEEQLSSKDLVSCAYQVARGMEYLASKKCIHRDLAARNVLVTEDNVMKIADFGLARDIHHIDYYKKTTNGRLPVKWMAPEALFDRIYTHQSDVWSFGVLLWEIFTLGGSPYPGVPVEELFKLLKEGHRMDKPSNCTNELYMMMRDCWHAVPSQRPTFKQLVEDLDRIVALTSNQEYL
T1 sequence (P09619 33-1106): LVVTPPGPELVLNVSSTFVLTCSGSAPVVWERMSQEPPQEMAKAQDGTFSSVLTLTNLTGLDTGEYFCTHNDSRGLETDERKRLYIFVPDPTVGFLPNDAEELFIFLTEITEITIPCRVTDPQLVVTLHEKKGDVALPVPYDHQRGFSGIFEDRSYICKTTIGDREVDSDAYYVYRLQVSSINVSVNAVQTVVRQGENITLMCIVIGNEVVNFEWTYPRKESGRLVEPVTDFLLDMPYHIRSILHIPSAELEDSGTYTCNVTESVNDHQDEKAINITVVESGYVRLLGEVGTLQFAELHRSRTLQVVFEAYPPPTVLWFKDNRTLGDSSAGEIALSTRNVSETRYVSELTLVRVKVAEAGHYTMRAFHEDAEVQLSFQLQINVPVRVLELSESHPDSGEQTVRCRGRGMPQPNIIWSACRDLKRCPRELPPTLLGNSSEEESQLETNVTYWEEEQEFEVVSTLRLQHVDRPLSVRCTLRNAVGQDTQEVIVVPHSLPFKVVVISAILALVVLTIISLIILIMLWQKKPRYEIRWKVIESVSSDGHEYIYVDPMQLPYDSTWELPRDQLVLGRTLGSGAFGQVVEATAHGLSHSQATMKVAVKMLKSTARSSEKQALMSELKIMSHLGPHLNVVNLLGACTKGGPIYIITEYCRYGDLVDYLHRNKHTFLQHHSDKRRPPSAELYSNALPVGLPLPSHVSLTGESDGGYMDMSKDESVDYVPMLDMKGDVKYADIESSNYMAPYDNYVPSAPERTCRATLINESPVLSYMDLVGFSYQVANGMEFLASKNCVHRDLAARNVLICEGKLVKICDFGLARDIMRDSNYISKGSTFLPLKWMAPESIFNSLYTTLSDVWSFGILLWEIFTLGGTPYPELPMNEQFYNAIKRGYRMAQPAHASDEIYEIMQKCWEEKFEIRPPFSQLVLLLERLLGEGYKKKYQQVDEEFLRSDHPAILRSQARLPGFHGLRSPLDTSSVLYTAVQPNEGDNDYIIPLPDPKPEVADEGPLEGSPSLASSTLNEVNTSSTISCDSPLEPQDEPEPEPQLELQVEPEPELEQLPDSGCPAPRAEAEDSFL

Structure (SMILES) | IC50 [1] | IC50 [2] | IC50 [3]
COc1ccc(/C=C2/C(=O)Nc3ccc(Br)cc32)cc1-c1ccccc1 [Example 13, 5-Bromo-3-(6-methoxybiphenyl-3-ylmethylene)-1,3-dihydroindol-2-one] | > 100 µM |  | 
CCOC(=O)c1c(C)[nH]c(/C=C2\C(=O)Nc3cc(-c4ccccc4OC)ccc32)c1CCC(=O)O [Example 110, 4-(2-Carboxyethyl)-5-[6-(2-methoxyphenyl)-2-oxo-1,2-dihydro-indol-3-ylidenemethyl]-2-methyl-1H-pyrrol-3-yl-carboxylic acid ethyl ester] | 3.15 µM | 17.5 µM | 3.05 µM
COc1ccc(/C=C2/C(=O)Nc3ccccc32)cc1-c1ccsc1 [Example 35, 3-(4-Methoxy-3-thiophen-3-ylbenzylidene)-1,3-dihydroindol-2-one] | > 100 µM |  | 
COc1ccccc1-c1ccc2c(c1)NC(=O)/C2=C\c1[nH]c(C)cc1CCC(=O)O [Example 109, 3-{2-[6-(2-Methoxyphenyl)-2-oxo-1,2-dihydroindol-3-ylidenemethyl]-5-methyl-1H-pyrrol-3-yl}-propionic acid] | 2.79 µM | > 20 µM | 2.68 µM
CC(=O)Nc1ccc2c(c1)NC(=O)/C2=C\c1ccc2c(c1)CCC(C)(C)O2 [Example 33, N-[3-(2,2-Dimethylchroman-6-ylmethylene)-2-oxo-2,3-dihydro-1H-indol-6-yl]-acetamide] | > 100 µM |  | 
CC(=O)Nc1ccc2c(c1)NC(=O)/C2=C/c1ccc(OCCN2CCOCC2)c(C(C)(C)C)c1 [Example 55, N-{3-[3-tert-Butyl-4-(2-morpholin-4-ylethoxy)-benzylidene]-2-oxo-2,3-dihydro-1H-indol-6-yl}-acetamide] | > 100 µM |  | 
COc1cc(C)c(C=C2C(=O)Nc3cc(NC(C)=O)ccc32)cc1C(C)C [Example 27, N-[3-(5-Isopropyl-4-methoxy-2-methyl-benzylidene)-2-oxo-2,3-dihydro-1H-indol-6-yl]-acetamide] | > 100 µM |  | 
COc1ccc(/C=C2/C(=O)Nc3ccc(F)cc32)cc1C1CCCCC1 [Example 43, 3-(3-Cyclohexyl-4-methoxybenzylidene)-5-fluoro-1,3-dihydroindol-2-one] | 11 µM |  | 
COc1ccc(/C=C2/C(=O)Nc3cc(NC(C)=O)ccc32)cc1-c1ccsc1 [Example 18, N-[3-(4-Methoxy-3-thiophene-3-ylbenzylidene)-2-oxo-2,3-dihydro-1H-indol-6-yl]-acetamide] | 86.9 µM |  | 
COc1ccc(/C=C2/C(=O)Nc3ccc(F)cc32)cc1C1CCCC1 [Example 11, 3-(3-Cyclopentyl-4-methoxybenzylidene)-5-fluoro-1,3-dihydroindol-2-one] | > 100 µM |  | 24.1 µM
CC(C)c1cc(/C=C2/C(=O)Nc3ccc(Cl)cc32)cc(C(C)C)c1OCCN1CCOCC1 [Example 24, 5-chloro-3-[3,5-diisopropyl-4-(2-morpholin-4-ylethoxy)-benzylidene]-1,3-dihydroindol-2-one] | > 100 µM |  | 
COc1cc(/C=C2/C(=O)Nc3ccccc32)c(-c2cccs2)cc1OC [Example 39, 3-(4,5-Dimethoxy-2-thiophen-2-ylbenzylidene)-1,3-dihydroindol-2-one] | > 100 µM |  | 
CC(=O)Nc1ccc2c(c1)NC(=O)/C2=C/c1ccc(OCCN2CCOCC2)c(-c2ccsc2)c1 [Example 50, N-{3-[4-(2-Morpholin-4-ylethoxy)-3-thiophen-3-ylbenzylidene]-2-oxo-2,3-dihydro-1H-indol-6-yl}-acetamide] | > 100 µM |  | 
CC(=O)Nc1ccc2c(c1)NC(=O)/C2=C/c1ccc(OCCN2CCOCC2)c(C2CCCCC2)c1 [Example 16, N-{3-[3-Cyclohexyl-4-(2-morpholin-4-ylethoxy)-benzylidene]-2-oxo-2,3-dihydro-1H-indol-6-yl}-acetamide] | > 100 µM |  | 
CC1(C)CCc2cc(/C=C3/C(=O)Nc4ccc(Cl)cc43)ccc2O1 [Example 15, 5-Chloro-3-(2,2-dimethyl-chroman-6-ylmethylene)-1,3-dihydroindol-2-one] | 26.5 µM |  | 
Cc1cc(CCC(=O)O)c(/C=C2\C(=O)Nc3ccc(Cl)cc32)[nH]1 [Example 111, 3-[2-(5-Chloro-2-oxo-1,2-dihydroindol-3-ylidenemethyl)-5-methyl-1H-pyrrol-3-yl]propionic acid] | 0.01 µM | 0.47 µM | 0.43 µM
Cc1cccc2c1/C(=C/c1cc3ccccc3[nH]1)C(=O)N2 [Example 166, 3-(1H-indol-2-ylmethylene)-4-methyl-1,3-dihydro-indol-2-one] | > 100 µM | > 20 µM | 
COc1cccc(-c2cc(OC)c(OC)cc2/C=C2/C(=O)Nc3ccc(Cl)cc32)c1 [Example 61, 5-Chloro-3-(4,5-3′-Trimethoxybiphenyl-2-ylmethylene)-1,3-dihydroindol-2-one] | > 100 µM |  | 
COc1cc(/C=C2/C(=O)Nc3ccccc32)c(-c2ccc3ccccc3c2)cc1OC [Example 62, 3-(4,5-Dimethoxy-2-naphthalen-2-ylbenzylidene)-1,3-dihydroindol-2-one] | > 100 µM |  | 
CC(=O)Nc1ccc2c(c1)NC(=O)/C2=C/c1ccc(OCCN2CCOCC2)c(-c2cccs2)c1 [Example 40, N-{3-[4-(2-Morpholin-4-ylethoxy)-3-thiophen-2-ylbenzylidene]-2-oxo-2,3-dihydro-1H-indol-6-yl}-acetamide] | > 100 µM |  | 

Structure (SMILES) | IC50 [1] | IC50 [2] | IC50 [3]
COc1cc(C)c(/C=C2/C(=O)Nc3ccc(Br)cc32)cc1C(C)C [Example 36, 5-Bromo-3-(5-isopropyl-4-methoxy-2-methyl-benzylidene)-1,3-dihydroindol-2-one] | > 100 µM |  | 
Cc1cccc2c1/C(=C/c1ccc3c(c1)CCC(C)(C)O3)C(=O)N2 [Example 41, 3-(2,2-Dimethylchroman-6-ylmethylene)-4-methyl-1,3-dihydroindol-2-one] | > 100 µM |  | 
CCOC(=O)c1c(C)[nH]c(/C=C2\C(=O)Nc3cc(-c4ccc(F)cc4)ccc32)c1CCC(=O)O [Example 108, 4-(2-Carboxyethyl)-5-[6-(4-fluorophenyl)-2-oxo-1,2-dihydro-indol-3-ylidenemethyl]-2-methyl-1H-pyrrole-3-carboxylic acid ethyl ester] | 2.97 µM | 2.57 µM | 1.08 µM
COc1ccc(/C=C2/C(=O)Nc3ccc(Cl)cc32)cc1-c1cccnc1 [Example 60] | 24.5 µM |  | 
O=C1Nc2ccc(F)cc2/C1=C\c1ccc2c(c1)CCO2 [Example 42, 3-(2,3-Dihydrobenzofuran-5-ylmethylene)-5-fluoro-1,3-dihydroindol-2-one] | 43.1 µM |  | 
O=C1Nc2ccc(Br)cc2/C1=C/c1cc2ccccc2[nH]1 [Example 165, 5-Bromo-3-(1H-indol-2-ylmethylene)-1,3-dihydro-indol-2-one] | 48.7 µM | > 20 µM | 
CC1(C)CCc2cc(C=C3C(=O)Nc4ccc(Br)cc43)ccc2O1 (racemic) [Example 34, 5-Bromo-3-(2,2-dimethylchroman-6-ylmethylene)-1,3-dihydroindol-2-one] | 56.7 µM |  | 
COc1ccc(/C=C2/C(=O)Nc3ccc(Cl)cc32)cc1-c1cccs1 [Example 59, 5-chloro-3-(4-Methoxy-3-thiophen-2-ylbenzylidene)-1,3-dihydroindol-2-one] | > 100 µM |  | 
CCOc1cccc(-c2cc(OC)c(OC)cc2/C=C2/C(=O)Nc3ccccc32)c1 [Example 58, 3-(3′-Ethoxy-4,5-dimethoxybiphenyl-2-ylmethylene)-1,3-dihydroindol-2-one] | > 100 µM |  | 
COc1cc(C=C2C(=O)Nc3ccccc32)c(-c2ccccc2OC)cc1OC [Example 49, 3-(4,5,2′-Trimethoxybiphenyl-2-ylmethylene)-1,3-dihydroindol-2-one] | > 100 µM |  | 
COc1ccc(C=C2C(=O)Nc3ccccc32)cc1-c1cccc(NC(C)=O)c1 [Example 29, N-[2′-Methoxy-5′-(2-oxo-1,2-dihydroindol-3-ylidenemethyl)-biphenyl-3-yl]-acetamide] | > 100 µM |  | 
CC(C)c1cc(/C=C2/C(=O)Nc3ccc(Br)cc32)cc(C(C)C)c1OCCN1CCOCC1 [Example 57, 5-Bromo-3-[3,5-diisopropyl-4-(2-morpholin-4-ylethoxy)benzylidene]-1,3-dihydroindol-2-one] | > 100 µM |  | 
COc1ccc(C=C2C(=O)Nc3cc(NC(C)=O)ccc32)cc1-c1cccc(NC(C)=O)c1 (mixture of isomers) [Example 63, N-[3-(3′-Acetylamino-6-methoxybiphenyl-3-ylmethylene)-2-oxo-2,3-dihydro-1H-indol-6-yl]-acetamide] | > 100 µM |  | 
COc1cc(C)c(/C=C2/C(=O)Nc3ccc(F)cc32)cc1C(C)C [Example 30, 5-Fluoro-3-(5-isopropyl-4-methoxy-2-methyl-benzylidene)-1,3-dihydroindol-2-one] | > 100 µM |  | 
COc1ccc(/C=C2/C(=O)Nc3ccc(F)cc32)cc1C(C)C [Example 44, 5-Fluoro-3-(3-isopropyl-4-methoxybenzylidene)-1,3-dihydroindol-2-one] | > 100 µM |  | 
COc1ccc2c(c1)NC(=O)/C2=C/c1ccc(OC)c(-c2ccsc2)c1 [Example 64, 6-Methoxy-3-(4-methoxy-3-thiophen-3-ylbenzylidene)-1,3-dihydroindol-2-one] | > 100 µM |  | 
CCOc1cccc(-c2cc(C=C3C(=O)Nc4ccccc43)ccc2OC)c1 [Example 46, 3-(3′-Ethoxy-6-methoxybiphenyl-3-ylmethylene)-1,3-dihydroindol-2-one] | > 100 µM |  | 
COc1ccc(/C=C2/C(=O)Nc3ccc(F)cc32)cc1-c1ccccc1 [Example 37, 5-Fluoro-3-(6-methoxybiphenyl-3-ylmethylene)-1,3-dihydroindol-2-one] | > 100 µM |  | 
COc1ccc(/C=C2/C(=O)Nc3cc(NC(C)=O)ccc32)cc1-c1cccs1 [Example 31, N-[3-(4-Methoxy-3-thiophen-2-ylbenzylidene)-2-oxo-2,3-dihydro-1H-indol-6-yl]-acetamide] | > 100 µM |  | 
